Source: the NIST ThermoML archive (doi:10.1021/je900598y)

What was measured:
[1] = excess molar enthalpy (molar enthalpy of mixing); xn = mol fraction of the nth substance listed; settings: 298.15 K, Liquid, Calvet calorimetry
[2] = 298.15 K; 101.33 kPa; Liquid

CCCCC(=O)OC(=O)CCCC [pentanoic anhydride] + CCCCCCCCCCCCCC
[1]
Settings	excess molar enthalpy [kJ/mol]
x1 = 0.0319	0.253
x1 = 0.0618	0.461
x1 = 0.0899	0.622
x1 = 0.1164	0.761
x1 = 0.1414	0.872
x1 = 0.165	0.969
x1 = 0.1873	1.05
x1 = 0.2126	1.13
x1 = 0.2363	1.2
x1 = 0.2587	1.25
x1 = 0.2798	1.3
x1 = 0.2997	1.34
x1 = 0.3186	1.37
x1 = 0.3364	1.4
x1 = 0.3569	1.43
x1 = 0.3714	1.47
x1 = 0.381	1.47
x1 = 0.3911	1.48
x1 = 0.402	1.49
x1 = 0.413	1.5
x1 = 0.4294	1.51
x1 = 0.4312	1.51
x1 = 0.4416	1.52
x1 = 0.4524	1.52
x1 = 0.4638	1.52
x1 = 0.4757	1.52
x1 = 0.4883	1.52
x1 = 0.5015	1.52
x1 = 0.5127	1.52
x1 = 0.5245	1.51
x1 = 0.5369	1.5
x1 = 0.5498	1.5
x1 = 0.5633	1.48
x1 = 0.5776	1.47
x1 = 0.5926	1.45
x1 = 0.6049	1.44
x1 = 0.6178	1.42
x1 = 0.6313	1.4
x1 = 0.6454	1.38
x1 = 0.6601	1.35
x1 = 0.6754	1.33
x1 = 0.6916	1.29
x1 = 0.7052	1.26
x1 = 0.7194	1.23
x1 = 0.7341	1.19
x1 = 0.7495	1.15
x1 = 0.7655	1.1
x1 = 0.7822	1.05
x1 = 0.7997	0.988
x1 = 0.8145	0.936
x1 = 0.8299	0.878
x1 = 0.8459	0.815
x1 = 0.8625	0.746
x1 = 0.8798	0.669
x1 = 0.8978	0.585
x1 = 0.9133	0.507
x1 = 0.9294	0.422
x1 = 0.9461	0.33
x1 = 0.9634	0.23
x1 = 0.9814	0.12

CCCCCC(=O)OC(=O)CCCCC [caproic anhydride] + CCCCCCCCCCCC
[1]
Settings	excess molar enthalpy [kJ/mol]
x1 = 0.0213	0.153
x1 = 0.0417	0.279
x1 = 0.0612	0.386
x1 = 0.08	0.476
x1 = 0.098	0.558
x1 = 0.1154	0.627
x1 = 0.1349	0.697
x1 = 0.1536	0.756
x1 = 0.1714	0.81
x1 = 0.1886	0.855
x1 = 0.205	0.895
x1 = 0.2208	0.929
x1 = 0.2374	0.961
x1 = 0.2533	0.99
x1 = 0.2625	1.02
x1 = 0.2688	1.03
x1 = 0.2754	1.04
x1 = 0.2824	1.05
x1 = 0.2897	1.06
x1 = 0.2974	1.08
x1 = 0.3056	1.09
x1 = 0.3134	1.09
x1 = 0.3215	1.1
x1 = 0.3301	1.11
x1 = 0.3392	1.12
x1 = 0.3471	1.13
x1 = 0.3555	1.14
x1 = 0.3642	1.14
x1 = 0.3733	1.15
x1 = 0.383	1.16
x1 = 0.3931	1.16
x1 = 0.4023	1.17
x1 = 0.412	1.17
x1 = 0.4222	1.17
x1 = 0.4329	1.17
x1 = 0.4442	1.18
x1 = 0.456	1.17
x1 = 0.4672	1.17
x1 = 0.4789	1.17
x1 = 0.4913	1.17
x1 = 0.5043	1.16
x1 = 0.5162	1.16
x1 = 0.5286	1.15
x1 = 0.5417	1.14
x1 = 0.5554	1.13
x1 = 0.5698	1.12
x1 = 0.585	1.1
x1 = 0.5987	1.09
x1 = 0.613	1.07
x1 = 0.628	1.05
x1 = 0.6438	1.03
x1 = 0.6604	1
x1 = 0.6778	0.97
x1 = 0.6941	0.939
x1 = 0.7112	0.907
x1 = 0.7291	0.869
x1 = 0.748	0.829
x1 = 0.7678	0.781
x1 = 0.7854	0.736
x1 = 0.8039	0.696
x1 = 0.8233	0.634
x1 = 0.8436	0.573
x1 = 0.8649	0.507
x1 = 0.8874	0.432
x1 = 0.9079	0.36
x1 = 0.9293	0.283
x1 = 0.9517	0.197
x1 = 0.9753	0.103

CCCCC(=O)OC(=O)CCCC [pentanoic anhydride]
Settings	mass density [kg/m3]
[2]	939.15

CCCCCCCCCCCCCC [tetradecane]
Settings	mass density [kg/m3]
[2]	760.2

CCCCC(=O)OC(=O)CCCC [pentanoic anhydride] + CCCCCCCCCCCCCCCC
[1]
Settings	excess molar enthalpy [kJ/mol]
x1 = 0.0353	0.29
x1 = 0.0683	0.525
x1 = 0.099	0.706
x1 = 0.1278	0.859
x1 = 0.1567	0.989
x1 = 0.1837	1.1
x1 = 0.209	1.19
x1 = 0.2329	1.26
x1 = 0.2553	1.33
x1 = 0.277	1.38
x1 = 0.2993	1.43
x1 = 0.3202	1.47
x1 = 0.3399	1.5
x1 = 0.3619	1.54
x1 = 0.3825	1.56
x1 = 0.4019	1.58
x1 = 0.42	1.59
x1 = 0.4371	1.6
x1 = 0.4532	1.6
x1 = 0.4705	1.61
x1 = 0.4866	1.61
x1 = 0.5018	1.6
x1 = 0.5161	1.6
x1 = 0.5296	1.59
x1 = 0.5424	1.59
x1 = 0.5564	1.58
x1 = 0.5695	1.57
x1 = 0.5819	1.55
x1 = 0.5935	1.54
x1 = 0.6046	1.53
x1 = 0.6168	1.52
x1 = 0.6292	1.5
x1 = 0.6421	1.48
x1 = 0.6556	1.46
x1 = 0.6696	1.43
x1 = 0.6842	1.4
x1 = 0.697	1.37
x1 = 0.7103	1.34
x1 = 0.7242	1.31
x1 = 0.7386	1.27
x1 = 0.7536	1.23
x1 = 0.7692	1.18
x1 = 0.7832	1.13
x1 = 0.7977	1.08
x1 = 0.8128	1.03
x1 = 0.8285	0.966
x1 = 0.8448	0.898
x1 = 0.8591	0.833
x1 = 0.8739	0.765
x1 = 0.8892	0.687
x1 = 0.905	0.605
x1 = 0.9214	0.515
x1 = 0.9361	0.429
x1 = 0.9513	0.334
x1 = 0.967	0.231
x1 = 0.9832	0.118

CCCCCCCCCCCCCCCC [hexadecane]
Settings	mass density [kg/m3]
[2]	770.31

CCCCCCCCCCCC [dodecane]
Settings	mass density [kg/m3]
[2]	745.28
